ChEMBL document CHEMBL1201862, “PubChem BioAssay data set” (2004)
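Exposure lasted 48 hours, with cells grown in 96-well plates and compounds tested at five concentrations. GI50 = concentration required for 50% inhibition of growth.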 Activity calls are given as the source filed them. Cut-off read from the data, not from the text of the source: active = GI50 up to about 1.1 µM and inactive = higher. Peptide text beside a SMILES is read from it. * marks the point of attachment. Cbz = O=C(OCc1ccccc1)*

Experiments:
Test in all cases: NCI tumour cell line growth inhibition, 48 h
LOX IMVI = tested on: LOX IMVI
SNB-19 = tested on: SNB-19
MDA-MB-231 = tested on: MDA-MB-231
MDA-MB-435 = tested on: MDA-MB-435
OVCAR-3 = tested on: OVCAR-3
SF-539 = tested on: SF-539
HOP-62 = tested on: HOP-62
DU-145 = tested on: DU-145
A549 = tested on: A549
SK-OV-3 = tested on: SK-OV-3
SN12C = tested on: SN12C
EKVX = tested on: EKVX
OVCAR-8 = tested on: OVCAR-8
NCI/ADR-RES = tested on: NCI/ADR-RES
UACC-62 = tested on: UACC-62
OVCAR-5 = tested on: OVCAR-5
RPMI-8226 = tested on: RPMI-8226
MOLT-4 = tested on: MOLT-4
ACHN = tested on: ACHN
HL-60 = tested on: HL-60

| SMILES | GI50 (LOX IMVI) | GI50 (SNB-19) | GI50 (MDA-MB-231) | GI50 (MDA-MB-435) | GI50 (OVCAR-3) | GI50 (SF-539) | GI50 (HOP-62) | GI50 (DU-145) | GI50 (A549) | GI50 (SK-OV-3) | GI50 (SN12C) | GI50 (EKVX) | GI50 (OVCAR-8) | GI50 (NCI/ADR-RES) | GI50 (UACC-62) | GI50 (OVCAR-5) | GI50 (RPMI-8226) | GI50 (MOLT-4) | GI50 (ACHN) | GI50 (HL-60) |
| --- | --- | --- | --- | --- | --- | --- | --- | --- | --- | --- | --- | --- | --- | --- | --- | --- | --- | --- | --- | --- |
| Cc1cc(Nc2ccc(S(=O)(=O)O)cc2)c2ccccc2n1 | > 100 µM (inactive) | > 100 µM (inactive) | > 100 µM (inactive) | > 100 µM (inactive) | > 100 µM (inactive) | > 100 µM (inactive) | 40.9 µM (inactive) | > 100 µM (inactive) | > 100 µM (inactive) | > 100 µM (inactive) | > 100 µM (inactive) | > 100 µM (inactive) | > 100 µM (inactive) | > 100 µM (inactive) | > 100 µM (inactive) | > 100 µM (inactive) | > 100 µM (inactive) | > 100 µM (inactive) | > 100 µM (inactive) | > 100 µM (inactive) |
| Cc1ccc(OP(=O)(Oc2ccc(C)cc2)N2C=Cc3ccccc3C2C#N)cc1 (centres undefined) | > 100 µM (inactive) | > 100 µM (inactive) | > 100 µM (inactive) | > 100 µM (inactive) | > 100 µM (inactive) | > 100 µM (inactive) | > 100 µM (inactive) | > 100 µM (inactive) | > 100 µM (inactive) | > 100 µM (inactive) | > 100 µM (inactive) | > 100 µM (inactive) | > 100 µM (inactive) | > 100 µM (inactive) | > 100 µM (inactive) | > 100 µM (inactive) | > 100 µM (inactive) | > 100 µM (inactive) | > 100 µM (inactive) | > 100 µM (inactive) |
| COc1ccc(/C=C2\CCC(C)(CN(C)C)C2=O)cc1Br (centres undefined) | 18.2 µM (inactive) | 23 µM (inactive) | 36.1 µM (inactive) | 24.5 µM (inactive) | 18.2 µM (inactive) | 21.5 µM (inactive) | 49.3 µM (inactive) | 50.4 µM (inactive) | 38.4 µM (inactive) | 30.1 µM (inactive) | 17.5 µM (inactive) | 10.2 µM (inactive) | 17 µM (inactive) | 22.3 µM (inactive) | 4.03 µM (inactive) | 37.7 µM (inactive) | 19.1 µM (inactive) | 20.3 µM (inactive) | 24.6 µM (inactive) | 34.8 µM (inactive) |
| CC(Cc1ccc(O)c(O)c1)C(C)Cc1ccc(O)c(O)c1 (centres undefined) [NORDIHYDROGUAIARETIC ACID] | 17.4 µM (inactive) | 19.5 µM (inactive) | > 39.1 µM (inactive) | 13.5 µM (inactive) | 13.7 µM (inactive) | 17.5 µM (inactive) | 17.1 µM (inactive) | 18.8 µM (inactive) | 33 µM (inactive) | 21.5 µM (inactive) | > 36.7 µM (inactive) | 23.4 µM (inactive) | 17.4 µM (inactive) | 22.8 µM (inactive) | 16 µM (inactive) | 21.2 µM (inactive) | 10.1 µM (inactive) | 8.22 µM (inactive) | 16.1 µM (inactive) | 2.99 µM (inactive) |
| CN1N=C(c2ccccc2)C(C(c2ccccc2[N+](=O)[O-])C2C(=O)N(C)N=C2c2ccccc2)C1=O (centres undefined) | 26.9 µM (inactive) | > 100 µM (inactive) | > 100 µM (inactive) | > 100 µM (inactive) | 44.6 µM (inactive) | > 55.5 µM (inactive) | 93.1 µM (inactive) | > 100 µM (inactive) | > 100 µM (inactive) | > 100 µM (inactive) | > 95.1 µM (inactive) | > 100 µM (inactive) | 39.3 µM (inactive) | > 100 µM (inactive) | 61.2 µM (inactive) | > 100 µM (inactive) | 34.3 µM (inactive) | 37.6 µM (inactive) | > 100 µM (inactive) | 18.7 µM (inactive) |
| O=C(O)CCC(NC(=O)OCc1ccccc1)C(=O)NC(Cc1c[nH]cn1)C(=O)O (stereo not drawn) (Cbz-Glu-His-OH; configuration not given here) | > 100 µM (inactive) | > 100 µM (inactive) | 37.1 µM (inactive) | > 100 µM (inactive) | > 100 µM (inactive) | > 100 µM (inactive) | > 100 µM (inactive) | > 100 µM (inactive) | > 100 µM (inactive) | > 100 µM (inactive) | > 100 µM (inactive) | > 100 µM (inactive) | > 100 µM (inactive) | > 100 µM (inactive) | > 100 µM (inactive) | > 100 µM (inactive) | > 100 µM (inactive) | > 100 µM (inactive) | > 100 µM (inactive) | > 100 µM (inactive) |
| COCC([C@@H](O)C(O)C(=O)NCC[C@@H](C)c1nc(/C=C/CC2OC3(C[C@H](O)C2C)OC(C(C[C@H](O)C(C)[C@H](O)C(C)/C=C(C)/C(C)=C/C=C/C(C)=C/C#N)OC)[C@@H](OP(=O)(O)O)C3(C)C)co1)N(C)C (some centres undefined) | 0.000245 µM (active) | 0.000195 µM (active) | 0.000242 µM (active) | 0.000175 µM (active) | 0.000186 µM (active) | 0.000189 µM (active) |  | 0.000182 µM (active) | 0.0004 µM (active) | 0.000474 µM (active) | 0.000179 µM (active) | 0.000172 µM (active) | 0.000208 µM (active) | 0.00107 µM (active) | 0.000195 µM (active) | 0.000188 µM (active) | 0.000272 µM (active) | 0.00082 µM (active) | 0.000199 µM (active) | 0.00048 µM (active) |
| CCCCCCCC(=O)N/N=C/c1ccc(Sc2nccn2C)c([N+](=O)[O-])c1 | 10.4 µM (inactive) | 21.4 µM (inactive) | 15 µM (inactive) | 13.6 µM (inactive) | 15.6 µM (inactive) | 17 µM (inactive) | 17.5 µM (inactive) | 18.4 µM (inactive) | 27.9 µM (inactive) | 26.7 µM (inactive) | 14.5 µM (inactive) | 14.7 µM (inactive) | 14.4 µM (inactive) | 17.7 µM (inactive) | 13 µM (inactive) | 18.2 µM (inactive) | 13 µM (inactive) | 11.4 µM (inactive) | 21.9 µM (inactive) | 0.27 µM (active) |
| NS(=O)(=O)c1nnc(/N=C(/CCC(=O)O)C(=O)O)s1 | > 100 µM (inactive) | > 100 µM (inactive) | > 100 µM (inactive) | > 100 µM (inactive) | > 100 µM (inactive) | > 100 µM (inactive) | > 100 µM (inactive) | > 100 µM (inactive) | > 100 µM (inactive) | > 100 µM (inactive) | > 100 µM (inactive) | > 100 µM (inactive) | > 100 µM (inactive) | > 100 µM (inactive) | > 100 µM (inactive) | > 100 µM (inactive) | > 100 µM (inactive) | > 100 µM (inactive) | > 100 µM (inactive) | > 100 µM (inactive) |
| Cc1cc2c(cc1Cl)SC(NS(=O)(=O)c1ccc(Cl)cc1)=NS2(=O)=O | 49.2 µM (inactive) | 65.6 µM (inactive) | 67.6 µM (inactive) | 91.6 µM (inactive) | 19.3 µM (inactive) | 18.3 µM (inactive) | 98.6 µM (inactive) | 83.9 µM (inactive) | > 100 µM (inactive) | > 100 µM (inactive) | > 100 µM (inactive) | 38.4 µM (inactive) |  | > 100 µM (inactive) | > 100 µM (inactive) | 35.4 µM (inactive) | 57 µM (inactive) | 16.9 µM (inactive) | > 100 µM (inactive) | > 100 µM (inactive) |
| C=C1c2nc3ccccc3n2C=C(c2ccccc2)N1c1ccc(Cl)cc1 | 45.8 µM (inactive) | 46.1 µM (inactive) | 17.4 µM (inactive) | > 82.8 µM (inactive) | 20 µM (inactive) | 7.89 µM (inactive) | 18.7 µM (inactive) | 59.8 µM (inactive) | 15.8 µM (inactive) | 27.3 µM (inactive) | > 63.5 µM (inactive) | 13.4 µM (inactive) | 25.1 µM (inactive) | 23.6 µM (inactive) | 19.1 µM (inactive) | 21.7 µM (inactive) | > 55.3 µM (inactive) | > 100 µM (inactive) | 9.18 µM (inactive) | > 100 µM (inactive) |
| COc1ccc2oc(=N)c(C(N)=S)cc2c1 | 15.4 µM (inactive) | 31.2 µM (inactive) | 18 µM (inactive) | 25.1 µM (inactive) |  | 22.1 µM (inactive) | 31.8 µM (inactive) | 27.2 µM (inactive) | 32.1 µM (inactive) | 33.2 µM (inactive) | 27.2 µM (inactive) | 29.6 µM (inactive) | 18.2 µM (inactive) | 16.8 µM (inactive) | 16 µM (inactive) | 29.9 µM (inactive) | 21.3 µM (inactive) | 20 µM (inactive) | 21.4 µM (inactive) | 14.3 µM (inactive) |
| [O-][n+]1cc(SCc2ccccc2)ncc1SCc1ccccc1 | > 10 µM (inactive) |  | > 10 µM (inactive) | > 10 µM (inactive) | > 10 µM (inactive) | > 10 µM (inactive) | > 10 µM (inactive) | > 10 µM (inactive) | > 10 µM (inactive) | > 10 µM (inactive) | > 10 µM (inactive) | > 10 µM (inactive) | > 10 µM (inactive) | > 10 µM (inactive) | > 10 µM (inactive) | > 10 µM (inactive) | > 10 µM (inactive) | > 10 µM (inactive) | > 10 µM (inactive) | > 10 µM (inactive) |
| Clc1ccc(C2=NNC(c3cccc(Cl)c3)C2)cc1 (centres undefined) | 16 µM (inactive) | 34.4 µM (inactive) | 18.7 µM (inactive) | 17.9 µM (inactive) | 28.6 µM (inactive) | 37.2 µM (inactive) | 32.2 µM (inactive) | 36.9 µM (inactive) | 23.2 µM (inactive) | 22 µM (inactive) | 21.4 µM (inactive) | 23.4 µM (inactive) |  | 26.5 µM (inactive) | 28.8 µM (inactive) | 44.8 µM (inactive) | 17.1 µM (inactive) | 27.1 µM (inactive) |  | 34.5 µM (inactive) |
